# Like-named read-outs stand apart in the source and are kept apart here.
# Tests used:
# in vivo = conditions: male, NMRI, mouse, ip, 300 mg/kg
# Method: After the treatment period, blood samples were drawn from the tail veins, collected in Greiner MiniCollect K2EDTA tubes, and centrifuged twice for 5 min at 15,000 g to obtain plasma samples. Three volumes of acetonitrile were added to one volume of plasma to precipitate out the proteins. The samples were vortexed for 20 s and placed on ice. Immediately after, they were centrifuged at 5,000 g for 10 min and again at 10,000 g for 2 min. The resulting supernatants were transferred to Eppendorf tubes and centrifuged for 2 min at 10,000 g. Finally, the supernatants were collected for analysis by LC-MS/MS to determine the targeted compound concentration. Percentage recovery was determined as follows: known concentrations of the compound were spiked into the blank plasma and acetonitrile was added (3:1 ratio) to precipitate out the proteins. Samples were vortexed for 20 s and placed on ice. The resulting supernatants were isolated via centrifugation as described above. The targeted compounds were identified using LC-MS/MS to detect their characteristic ions. Plasma concentrations at each point were plotted as a function of time.
# Brain samples were collected at the same time points as described for blood samples. Male NMRI mice were overdosed with dolethal via i.p. administration. Mice were perfused with 0.9% saline and brains were collected in Eppendorf tubes. Brains were weighed, whereafter 400 μL of acetonitrile was added to the samples. […] Homogenized samples were centrifuged at 5,000 g for 10 min and again at 10,000 g for 2 min. The resulting supernatants were transferred to Eppendorf tubes and centrifuged for 2 min at 10,000 g. Finally, the supernatants were collected for analysis by LC-MS/MS to determine the targeted compound concentration in the brain tissue.
# The compound concentrations in mouse plasma and brain were determined by LC-MS/MS.
# CCKAR = biological target: T1, CCKAR (Homo sapiens, UniProt P32238); assay: Calcium Flux CCKAR Antagonist; assay type: cell-based; conditions: for IC50: read-out: RC50, result type IC50; for Emax: read-out: Max response
# T1 sequence (P32238 1-428): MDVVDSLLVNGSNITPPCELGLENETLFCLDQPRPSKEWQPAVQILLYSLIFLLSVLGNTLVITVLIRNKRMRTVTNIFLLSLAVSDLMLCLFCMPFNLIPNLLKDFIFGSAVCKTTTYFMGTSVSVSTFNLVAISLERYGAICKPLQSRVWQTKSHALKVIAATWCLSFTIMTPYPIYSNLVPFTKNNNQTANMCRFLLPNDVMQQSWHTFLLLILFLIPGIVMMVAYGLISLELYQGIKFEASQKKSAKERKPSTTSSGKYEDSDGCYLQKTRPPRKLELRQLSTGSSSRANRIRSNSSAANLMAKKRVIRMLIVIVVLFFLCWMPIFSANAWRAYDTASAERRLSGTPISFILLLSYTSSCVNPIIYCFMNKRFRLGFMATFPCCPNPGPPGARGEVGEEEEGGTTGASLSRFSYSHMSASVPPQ
# Method: (≤0.2% DMSO concentration). Assays were performed in 1× dye loading buffer consisting of 1× Dye (DiscoverX, Calcium No Wash^PLUS kit, Catalog No. 90-0091), 1× Additive A and 2.5 mM Probenecid in HBSS/20 mM HEPES. Probenecid was prepared fresh. Prior to testing, media was aspirated from cells and replaced with 25 μL dye loading buffer. Cells were incubated for 45 min at 37° C. and then 20 min at RT. For agonist determination, 25 μL of 2× compound in HBSS/20 mM HEPES was added using a FLIPR Tetra (MDS). […] 25 μL of 2× sample was added and cells were incubated for 30 min at RT in the dark to equilibrate plate temperature. After incubation, antagonist determination was initiated by addition of 25 μL of 1× compound with 3×EC80 agonist using FLIPR. For both agonist and antagonist formats, activity was measure on a FLIPR Tetra (MDS). Calcium mobilization was monitored for 2 min with a 5 sec baseline read.
# FLIPR read—Area under the curve, was calculated for the entire 2 min read.
# COX1 = biological target: T2, COX1 (Homo sapiens, UniProt P23219); assay: Enzymatic COX1 Inhibitor; assay type: biochemical; conditions: for IC50: read-out: RC50, result type IC50; for Emax: read-out: Max response
# T2 construct: purchased BPS Bioscience
# Method: Enzyme preparations were sourced from various vendors-AChE (R&D Systems), COX1 and COX2 (BPS Bioscience), MAOA (Sigma), PDE3A and PDE4D2 (Signal Chem). AChE: enzyme and test compound were pre-incubated for 15 min at RT before substrate addition. Acetylthiocholine and DTNB were added and incubated at RT for 30 min. Signal was detected by measuring absorbance at 405 nm. COX1 and COX2: enzyme stocks were diluted in assay buffer (40 mM Tris-HCl, 1×PBS, 0.5 mM Phenol, 0.01% Tween 20 and 10 nM Hematin) and allowed to equilibrate with compounds at RT for 30 min (binding incubation). Arachidonic acid (1.7 μM) and Ampliflu Red (2.5 μM) were prepared and dispended into a reaction plate. Plates were read immediately on a fluorimeter with the emission detection at 590 nm and excitation wavelength 544 nm. MAOA: enzyme and test compound were pre-incubated for 15 min at 37° C. before substrate addition. The reaction was initiated by addition of kynuramine and incubated at 37° C. for 30 min. The reaction was terminated by addition of NaOH. The amount of 4-hydroquinoline formed was determined through spectrofluorometric readout with the emission detection at 380 nm and excitation wavelength 310 nm. PDE3A and PDE4D2: enzyme and test compound were pre-incubated for 15 min at RT before substrate addition. cAMP substrate (at a concentration equal to EC80) was added and incubated at RT for 30 min. Enzyme reaction was terminated by addition of 9 mM IBMX. Signal was detected using the HitHunter® cAMP detection kit. Microplates were transferred to a PerkinElmer Envision™ instrument and read out as described for each assay. […] For enzyme activity assays, percentage inhibition was calculated using the following equation: […]
# HRH2 = HRH2 (Homo sapiens, UniProt P25021); assay: cAMP HRH2 Agonist; assay type: cell-based; conditions: for Emax: read-out: Max response
# Method: cAMP Hunter cell lines were expanded from freezer stocks. […] For Gi agonist determination, cells were incubated with sample in the presence of EC80 forskolin to induce response. For both conditions, media was aspirated from cells and replaced with 15 μL 2:1 HBSS/10 mM HEPES:cAMP XS+ Ab reagent. […] 5 μL of 4× sample was added to cells and incubated at 37° C. or room temperature (RT) for 30 or 60 min. Final assay vehicle concentration was 1%. […] Media was aspirated from cells and replaced with 10 μL 1:1 HBSS/HEPES:cAMP XS+ Ab reagent. […] For Gi coupled GPCRs, EC80 forskolin was included. […] Compound activity was analyzed using CBIS data analysis suite (ChemInnovation, CA).
# DRD1 = DRD1 (Homo sapiens, UniProt P21728); assay: cAMP DRD1 Antagonist; conditions: for Emax: read-out: Max response
# Sequence of DRD1 (P21728 whole entry): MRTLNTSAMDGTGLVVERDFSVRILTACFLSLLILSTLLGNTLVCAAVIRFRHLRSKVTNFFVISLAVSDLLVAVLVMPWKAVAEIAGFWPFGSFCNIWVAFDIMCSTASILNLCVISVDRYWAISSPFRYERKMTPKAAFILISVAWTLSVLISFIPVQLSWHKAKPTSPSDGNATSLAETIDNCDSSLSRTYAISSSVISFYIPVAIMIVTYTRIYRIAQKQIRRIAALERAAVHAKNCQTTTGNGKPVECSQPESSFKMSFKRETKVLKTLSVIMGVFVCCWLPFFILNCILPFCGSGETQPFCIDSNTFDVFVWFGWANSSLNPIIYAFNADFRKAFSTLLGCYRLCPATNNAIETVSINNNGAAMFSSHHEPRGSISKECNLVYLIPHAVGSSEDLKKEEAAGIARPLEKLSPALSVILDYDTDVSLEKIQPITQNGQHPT
# Method: In vitro pharmacological profiling of compounds was done against 78 functional assays for 47 common off-targets (30) by Eurofins DiscoverX Corporation (Fremont, CA, USA) using their SAFETYscan E/IC50 ELECT service (Cat Ref 87-1003DR, Safety47 Panel Dose Response). […] Compounds were tested in a range of 10 concentrations, following a 3-fold serial dilution, starting from 10 μM.
# cAMP Hunter cell lines were expanded from freezer stocks. Prior to testing, cells were seeded in a total volume of 20 μL into white walled 384-well microplates and incubated at 37° C. cAMP modulation was determined using the DiscoverX HitHunter cAMP XS+ assay. For Gs agonist determination, cells were incubated with sample to induce response. For Gi agonist determination, cells were incubated with sample in the presence of EC80 forskolin to induce response. For both conditions, media was aspirated from cells and replaced with 15 μL 2:1 HBSS/10 mM HEPES:cAMP XS+ Ab reagent. Intermediate dilution of sample stocks was performed to generate 4× sample in assay buffer (containing 4×EC80 forskolin in the case of antagonist determination). 5 μL of 4× sample was added to cells and incubated at 37° C. or room temperature (RT) for 30 or 60 min. Final assay vehicle concentration was 1%. For antagonist determination, cells were pre-incubated with sample followed by agonist challenge at the EC80 concentration. Media was aspirated from cells and replaced with 10 μL 1:1 HBSS/HEPES:cAMP XS+ Ab reagent. 5 μL of 4× compound was added to the cells and incubated at 37° C. or RT for 30 min. 5 μL of 4×EC80 agonist was added to the cells and incubated at 37° C. or RT for 30 or 60 min. For Gi coupled GPCRs, EC80 forskolin was included. […] Microplates were read following signal generation with a PerkinElmer Envision™ instrument for chemiluminescent signal detection. Compound activity was analyzed using CBIS data analysis suite (ChemInnovation, CA).
# T2 sequence (P23219 24-599): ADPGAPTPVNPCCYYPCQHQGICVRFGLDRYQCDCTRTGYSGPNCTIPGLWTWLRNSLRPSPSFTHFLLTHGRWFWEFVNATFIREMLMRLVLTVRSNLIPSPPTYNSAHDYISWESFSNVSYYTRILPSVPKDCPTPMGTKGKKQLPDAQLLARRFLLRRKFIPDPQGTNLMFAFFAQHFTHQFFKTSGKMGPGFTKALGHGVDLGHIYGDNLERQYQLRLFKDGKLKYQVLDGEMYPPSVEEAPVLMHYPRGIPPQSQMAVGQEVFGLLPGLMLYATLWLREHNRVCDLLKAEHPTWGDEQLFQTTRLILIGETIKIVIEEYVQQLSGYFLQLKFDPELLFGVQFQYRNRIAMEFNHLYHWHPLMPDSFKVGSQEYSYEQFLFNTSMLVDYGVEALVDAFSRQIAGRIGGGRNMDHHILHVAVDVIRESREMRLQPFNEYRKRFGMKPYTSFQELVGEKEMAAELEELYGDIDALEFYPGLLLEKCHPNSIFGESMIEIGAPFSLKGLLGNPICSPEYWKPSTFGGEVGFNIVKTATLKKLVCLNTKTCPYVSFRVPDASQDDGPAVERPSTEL
# Sequence of HRH2 (P25021 whole entry): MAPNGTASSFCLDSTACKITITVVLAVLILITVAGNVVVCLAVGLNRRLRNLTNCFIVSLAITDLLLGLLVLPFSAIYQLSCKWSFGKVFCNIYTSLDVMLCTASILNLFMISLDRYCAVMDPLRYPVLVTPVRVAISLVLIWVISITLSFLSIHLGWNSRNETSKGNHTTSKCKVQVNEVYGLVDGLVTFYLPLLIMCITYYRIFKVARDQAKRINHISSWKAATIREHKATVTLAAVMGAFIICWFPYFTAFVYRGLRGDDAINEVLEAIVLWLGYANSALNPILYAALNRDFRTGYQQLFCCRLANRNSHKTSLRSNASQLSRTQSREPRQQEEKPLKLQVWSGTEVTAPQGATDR
Compound,Cmax (in vivo; brain) [ng/g],Cmax (in vivo; plasma) [µM],IC50 (CCKAR; Calcium Flux CCKAR Antagonist) [µM],Emax (CCKAR) [%],IC50 (COX1; Enzymatic COX1 Inhibitor) [µM],Emax (COX1) [%],EC50 (HRH2) [µM],Emax (HRH2) [%],IC50 (DRD1) [µM],Emax (DRD1) [%],Emax (CCKAR; Calcium Flux CCKAR Antagonist) [%],Emax (COX1; Enzymatic COX1 Inhibitor) [%],Emax (HRH2; cAMP HRH2 Agonist) [%],"EC50 (HRH2; cAMP HRH2 Agonist, read-out: RC50, result type EC50) [µM]"
"CC(C)(C)c1ccc(C#CC(O)c2ccccc2)cc1 (racemic) [Compound 3.3, rac-3-(4-(tert-butyl)phenyl)-1-phenylprop-2-yn-1-ol]",96000,62,> 10,0,> 10,9.9,> 10,2.2,> 10,2.7,,,,
"Clc1cccc(C#Cc2n[nH]c3ncccc23)c1 [Compound 10.1, 3-((3-chlorophenyl)ethynyl)-1H-pyrazolo[3,4-b]pyridine]",31000,27,> 10,,> 10,,,,> 10,17.2,0,0,0.4,> 10
